In ChEMBL document CHEMBL2203002, “Fluorescent nitrile-based inhibitors of cysteine cathepsins” (Bioorg Med Chem Lett, 2012) one finds Ki and T1/2 data, which are given here for three compounds.

One may read the pKi as the Ki on a negative log10 scale, so that one unit is a factor of ten.

pKi: −log10 of the molar value.

Assay [1] concerns the target T1, Cathepsin B (Homo sapiens, UniProt P07858). The experiment in a line: Inhibition of human recombinant cathepsin B using Z-Arg-Arg-pNA as substrate after 10 mins by […] analysis.
Assay [2] concerns the target T2, Cathepsin K (Homo sapiens, UniProt P43235).
T2 sequence (P43235 whole entry): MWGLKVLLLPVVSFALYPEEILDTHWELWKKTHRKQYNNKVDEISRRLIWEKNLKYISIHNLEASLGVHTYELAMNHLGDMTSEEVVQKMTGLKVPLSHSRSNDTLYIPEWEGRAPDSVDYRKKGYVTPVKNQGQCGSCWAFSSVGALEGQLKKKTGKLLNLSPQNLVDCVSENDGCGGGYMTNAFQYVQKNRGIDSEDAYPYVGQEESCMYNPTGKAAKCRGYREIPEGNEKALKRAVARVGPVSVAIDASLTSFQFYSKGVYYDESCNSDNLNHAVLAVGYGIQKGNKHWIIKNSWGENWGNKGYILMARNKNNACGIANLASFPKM
The experiment in a line: Inhibition of human recombinant cathepsin K using Z-Leu-Arg-AMC as substrate after 10 mins by fluorimetric analysis.

In assay [3] the target is T3, Cathepsin S (Homo sapiens, UniProt P25774). The experiment in a line: Inhibition of human recombinant cathepsin S using Z-Phe-Arg-pNA as substrate after 10 mins by […] analysis.
Target sequence in this assay (P25774 whole entry): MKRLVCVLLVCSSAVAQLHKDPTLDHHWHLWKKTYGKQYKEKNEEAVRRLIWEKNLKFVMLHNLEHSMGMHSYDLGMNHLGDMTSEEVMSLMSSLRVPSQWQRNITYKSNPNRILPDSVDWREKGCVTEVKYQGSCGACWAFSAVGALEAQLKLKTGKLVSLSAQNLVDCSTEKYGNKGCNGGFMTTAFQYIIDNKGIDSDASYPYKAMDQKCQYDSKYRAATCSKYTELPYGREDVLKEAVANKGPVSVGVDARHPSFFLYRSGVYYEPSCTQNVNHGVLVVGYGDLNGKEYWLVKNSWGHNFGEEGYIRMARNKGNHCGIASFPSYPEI
Assay [4] is described as follows: Inhibition of human cathepsin L using Z-Phe-Arg-pNA as substrate after 10 mins by […] analysis.
The target in assay [5] is T1, Cathepsin B. Description: Inhibition of human recombinant cathepsin B using Z-Arg-Arg-pNA as substrate after 80 mins by […] analysis.
Assay [6] deals with T2, Cathepsin K. Description: Inhibition of human recombinant cathepsin K using Z-Leu-Arg-AMC as substrate after 80 mins by fluorimetric analysis.
Assay [7] concerns the target T3, Cathepsin S. The experiment in a line: Inhibition of human recombinant cathepsin S using Z-Phe-Arg-pNA as substrate after 80 mins by […] analysis.
Target sequence in this assay (P25774 whole entry): as above
Assay [8] concerns the target T1, Cathepsin B.
Description: Binding affinity to human recombinant cathepsin B assessed as compound-enzyme half life
For assay [9], the target named is T4, Cathepsin K (Homo sapiens) (UniProt P43235).
T4 sequence (whole entry): T2 sequence (P43235 whole entry)
Description: Binding affinity to human recombinant cathepsin K assessed as compound-enzyme half life

Assay [10] addresses T3, Cathepsin S.
Target sequence in this assay (P25774 115-331 limits assumed): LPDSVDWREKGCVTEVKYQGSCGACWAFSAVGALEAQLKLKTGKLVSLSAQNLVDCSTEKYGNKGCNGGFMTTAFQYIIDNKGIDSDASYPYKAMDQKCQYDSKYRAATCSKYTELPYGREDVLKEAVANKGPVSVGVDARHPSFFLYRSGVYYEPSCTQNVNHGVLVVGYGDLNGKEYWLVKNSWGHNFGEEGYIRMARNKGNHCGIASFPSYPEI
Description: Binding affinity to human recombinant cathepsin S assessed as compound-enzyme half life
A short description of assay [11]: Inhibition of human cathepsin L using Z-Phe-Arg-pNA as substrate incubated for 30 mins prior to substrate addition measured after 10 mins by […] analysis.

For `CCN(CC)c1ccc2cc(C(=O)NC3(C(=O)NCC#N)CCCCC3)c(=O)oc2c1`, the pKi on Cathepsin B [1] was less than 4.40; on Cathepsin K [2] it was 6.64; at Cathepsin S [3] it was 5.08; in assay [4], 4.74.
Turning to `CCN(CC)c1ccc2cc(C(=O)NC3(C(=O)N(C)N(C)C#N)CCCCC3)c(=O)oc2c1`, the negative-log Ki (pKi) is 6.85 at Cathepsin B [5], 7.72 on Cathepsin K [6], 6.12 at Cathepsin S [7] and 6.12 in [11]. The T1/2 (on Cathepsin B [8]; in assay [9]; on Cathepsin S [10]) was 30 min each time.
For `CN(C)c1cccc2c(S(=O)(=O)NC3(C(=O)NCC#N)CCCCC3)cccc12`, the pKi on Cathepsin B [1] is less than 4.40; on Cathepsin K [2], 6.06; at Cathepsin S [3] it was 5.18; in assay [4], less than 4.40.
